Measured values as given in PMC11012124, “Synthesis of Novel Triazine-Based Chalcones and 8,9-dihydro-7H-pyrimido[4,5-b][1,4]diazepines as Potential Leads in the Search of Anticancer, Antibacterial and Antifungal Agents” (International Journal of Molecular Sciences, 2024).

What was measured:
UACC-62 = test: cells; conditions: Homo sapiens, UACC-62, 48 h; for CC50: read-out: LC50
CAKI-1 = test: cells; conditions: Homo sapiens, CAKI-1, 48 h; for CC50: read-out: LC50
MDA-MB-468 = test: cells; conditions: Homo sapiens, MDA-MB-468, 48 h; for CC50: read-out: LC50
HOP-92 = test: cells; conditions: Homo sapiens, HOP-92, 48 h; for CC50: read-out: LC50
MDA-MB-231/ATCC = test: cells; conditions: Homo sapiens, MDA-MB-231, 48 h; for CC50: read-out: LC50
T-47D = test: cells; conditions: Homo sapiens, T47D, 48 h; for CC50: read-out: LC50
NCI-H522 = test: cells; conditions: Homo sapiens, NCI-H522, 48 h; for CC50: read-out: LC50
HCC-2998 = test: cells; conditions: Homo sapiens, HCC 2998, 48 h; for CC50: read-out: LC50
SR = test: cells; conditions: Homo sapiens, 48 h; for CC50: read-out: LC50
PC-3 = test: cells; conditions: Homo sapiens, PC-3, 48 h; for CC50: read-out: LC50
MOLT-4 = test: cells; conditions: Homo sapiens, MOLT-4, 48 h; for CC50: read-out: LC50
A498 = test: cells; conditions: Homo sapiens, A498, 48 h; for CC50: read-out: LC50
SK-OV-3 = test: cells; conditions: Homo sapiens, SK-OV-3, 48 h; for CC50: read-out: LC50
HT29 = test: cells; conditions: Homo sapiens, HT-29, 48 h; for CC50: read-out: LC50
K-562 = test: cells; conditions: Homo sapiens, K562, 48 h; for GI50: K-562, 48 h; for CC50: read-out: LC50
LOX IMVI = test: cells; conditions: Homo sapiens, 48 h; for CC50: read-out: LC50, LOX IMVI, 48 h
OVCAR-3 = test: cells; conditions: Homo sapiens, OVCAR-3, 48 h; for CC50: read-out: LC50
TK-10 = test: cells; conditions: Homo sapiens, TK-10, 48 h; for CC50: read-out: LC50
HS 578T = test: cells; conditions: Homo sapiens, 48 h; for CC50: read-out: LC50
[1] = Hemolytic activity, spectrophotometric; type: cell-based, human; conditions: human, human red blood cells (huRBC), 5% hematocrit, 200 μg/mL, 37 °C
MCF7 = test: cells; conditions: Homo sapiens, MCF7, 48 h; for CC50: read-out: LC50
DU-145 = test: cells; conditions: Homo sapiens, DU-145, 48 h; for CC50: read-out: LC50
RXF 393 = test: cells; conditions: Homo sapiens, RXF 393, 48 h; for CC50: read-out: LC50
SF-539 = test: cells; conditions: Homo sapiens, SF-539, 48 h; for CC50: read-out: LC50, SF-539, 48 h

CN(C)c1nc(NCCNS(=O)(=O)c2ccc(C(=O)/C=C/c3ccccc3)cc2)nc(N2CCOCC2)n1 [23a]
GI50 (UACC-62): 12 µM
CC50 (UACC-62): 52.3 µM
GI50 (CAKI-1): 12.2 µM
CC50 (CAKI-1): 49.9 µM
GI50 (MDA-MB-468): 4.17 µM
CC50 (MDA-MB-468): 49.9 µM
GI50 (HOP-92): 12.2 µM
CC50 (HOP-92): 58 µM
GI50 (MDA-MB-231/ATCC): 13.9 µM
CC50 (MDA-MB-231/ATCC): 54.7 µM
GI50 (T-47D): 16 µM
CC50 (T-47D): 87.4 µM
GI50 (NCI-H522): 13.6 µM
CC50 (NCI-H522): 54.1 µM
GI50 (HCC-2998): 16.7 µM
CC50 (HCC-2998): 57.7 µM
GI50 (SR): 3.2 µM
CC50 (SR): > 100 µM
GI50 (PC-3): 8.63 µM
CC50 (PC-3): 58.9 µM
GI50 (MOLT-4): 4.27 µM
CC50 (MOLT-4): > 100 µM
GI50 (A498): 14.6 µM
CC50 (A498): 52.9 µM
GI50 (SK-OV-3): 15.6 µM
CC50 (SK-OV-3): 56.8 µM
GI50 (HT29): 3.8 µM
CC50 (HT29): 43.9 µM
GI50 (K-562): 2.19 µM
CC50 (K-562): > 100 µM
GI50 (LOX IMVI): 1.97 µM
CC50 (LOX IMVI): 8.68 µM
GI50 (OVCAR-3): 15.3 µM
CC50 (OVCAR-3): 53.4 µM
GI50 (TK-10): 16.4 µM
CC50 (TK-10): 55.5 µM
GI50 (HS 578T): 17.1 µM
CC50 (HS 578T): > 100 µM
hemolysis at 24 h, 200 µg/mL [1]: 0.7%
GI50 (MCF7): 3.49 µM
CC50 (MCF7): 62 µM
GI50 (DU-145): 15.1 µM
CC50 (DU-145): 53.3 µM
GI50 (RXF 393): 7.87 µM
CC50 (RXF 393): 55.8 µM
GI50 (SF-539): 11.1 µM
CC50 (SF-539): 53.2 µM

CN(C)c1nc(NCCNS(=O)(=O)c2ccc(C(=O)/C=C/c3ccc(F)cc3)cc2)nc(N2CCOCC2)n1 [23f]
GI50 (UACC-62): 10.8 µM
CC50 (UACC-62): 49.1 µM
GI50 (CAKI-1): 9.5 µM
CC50 (CAKI-1): 48.6 µM
GI50 (MDA-MB-468): 8.08 µM
CC50 (MDA-MB-468): 54.7 µM
GI50 (HOP-92): 12.7 µM
CC50 (HOP-92): 63.5 µM
GI50 (MDA-MB-231/ATCC): 12.3 µM
CC50 (MDA-MB-231/ATCC): 51.8 µM
GI50 (T-47D): 11.9 µM
CC50 (T-47D): 94.2 µM
GI50 (NCI-H522): 13.3 µM
CC50 (NCI-H522): 53.2 µM
GI50 (HCC-2998): 16 µM
CC50 (HCC-2998): 56 µM
GI50 (SR): 3.45 µM
CC50 (SR): > 100 µM
GI50 (PC-3): 11.2 µM
CC50 (PC-3): 58.5 µM
GI50 (MOLT-4): 4.69 µM
CC50 (MOLT-4): > 100 µM
GI50 (A498): 11.9 µM
CC50 (A498): 49.9 µM
GI50 (SK-OV-3): 13.8 µM
CC50 (SK-OV-3): 55.5 µM
GI50 (HT29): 2.84 µM
CC50 (HT29): 32.3 µM
GI50 (K-562): 3.7 µM
CC50 (K-562): > 100 µM
GI50 (LOX IMVI): 1.63 µM
CC50 (LOX IMVI): 6.19 µM
GI50 (OVCAR-3): 14.6 µM
CC50 (OVCAR-3): 55.7 µM
GI50 (TK-10): 15.3 µM
CC50 (TK-10): 53.8 µM
GI50 (HS 578T): 14.6 µM
CC50 (HS 578T): > 100 µM
GI50 (MCF7): 2.99 µM
CC50 (MCF7): 46.7 µM
GI50 (DU-145): 14.4 µM
CC50 (DU-145): 53.8 µM
GI50 (RXF 393): 8.82 µM
CC50 (RXF 393): 46.5 µM
GI50 (SF-539): 13.2 µM
CC50 (SF-539): 51.1 µM

CN(C)c1nc(NCCNS(=O)(=O)c2ccc(C(=O)/C=C/c3ccc(C(F)(F)F)cc3)cc2)nc(N2CCOCC2)n1 [23g]
GI50 (UACC-62): 11.2 µM
CC50 (UACC-62): 48.5 µM
GI50 (CAKI-1): 11.4 µM
CC50 (CAKI-1): 51.7 µM
GI50 (MDA-MB-468): 5.11 µM
CC50 (MDA-MB-468): 48.8 µM
GI50 (HOP-92): 15.2 µM
CC50 (HOP-92): 65.2 µM
GI50 (MDA-MB-231/ATCC): 11.7 µM
CC50 (MDA-MB-231/ATCC): 50.3 µM
GI50 (T-47D): 5.5 µM
CC50 (T-47D): > 100 µM
GI50 (NCI-H522): 15.2 µM
CC50 (NCI-H522): 58.2 µM
GI50 (HCC-2998): 12.9 µM
CC50 (HCC-2998): 52.5 µM
GI50 (SR): 6.31 µM
CC50 (SR): > 100 µM
GI50 (PC-3): 10.8 µM
CC50 (PC-3): 60 µM
GI50 (MOLT-4): 3.48 µM
CC50 (MOLT-4): > 100 µM
GI50 (A498): 13.3 µM
CC50 (A498): 53 µM
GI50 (SK-OV-3): 14.7 µM
CC50 (SK-OV-3): 59 µM
GI50 (HT29): 2.06 µM
CC50 (HT29): 9.88 µM
GI50 (K-562): 3.21 µM
CC50 (K-562): > 100 µM
GI50 (LOX IMVI): 1.68 µM
CC50 (LOX IMVI): 5.94 µM
GI50 (OVCAR-3): 16.4 µM
CC50 (OVCAR-3): 57.3 µM
GI50 (TK-10): 15.5 µM
CC50 (TK-10): 56 µM
GI50 (HS 578T): 17.8 µM
CC50 (HS 578T): > 100 µM
GI50 (MCF7): 1.68 µM
CC50 (MCF7): 6.63 µM
GI50 (DU-145): 15.4 µM
CC50 (DU-145): 54.5 µM
GI50 (RXF 393): 11.5 µM
CC50 (RXF 393): 49 µM
GI50 (SF-539): 13 µM
CC50 (SF-539): 50.7 µM
